From ChEMBL document CHEMBL5223066, “The medicinal chemistry of mitochondrial dysfunction: a critical overview of efforts to modulate mitochondrial health” (RSC Med Chem, 2021)

Tests used:
[1] = Induction of mitophagy in human HeLa cells; assay type: functional, cell-based
hERG (KCNH2) = hERG (KCNH2) (Homo sapiens, UniProt Q12809); test: Inhibition of hERG at 30 uM relative to control; assay type: toxicity
[2] = Efflux ratio in dog MDCK-MDR1 cells; assay type: ADME, cell-based, Canis lupus familiaris
[3] = Ratio of drug level in brain to blood in BALB/c mouse at 5 mg/kg, po; assay type: ADME, organism-based
[4] = Drug concentration in brain of mouse at 400 mg/kg, po qd; assay type: ADME, organism-based; settings: in vivo, read-out: Ct
[5] = Cmax in human CSF at 1000 mg, po bid administered for 8 weeks; assay type: ADME, organism-based, Cerebrospinal fluid; set-up: dose 1000 mg, time 8 weeks, route po
[6] = Cmax in human CSF at 500 mg, po qd administered for 8 weeks; assay type: ADME, organism-based, Cerebrospinal fluid; set-up: time 8 weeks, dose 500 mg, route po
[7] = Cmax in rat at 3 mg/kg, iv; assay type: ADME, organism-based; set-up: dose 3 mg/kg, route iv; settings: in vivo

Chain of hERG (KCNH2) (Q12809 whole entry): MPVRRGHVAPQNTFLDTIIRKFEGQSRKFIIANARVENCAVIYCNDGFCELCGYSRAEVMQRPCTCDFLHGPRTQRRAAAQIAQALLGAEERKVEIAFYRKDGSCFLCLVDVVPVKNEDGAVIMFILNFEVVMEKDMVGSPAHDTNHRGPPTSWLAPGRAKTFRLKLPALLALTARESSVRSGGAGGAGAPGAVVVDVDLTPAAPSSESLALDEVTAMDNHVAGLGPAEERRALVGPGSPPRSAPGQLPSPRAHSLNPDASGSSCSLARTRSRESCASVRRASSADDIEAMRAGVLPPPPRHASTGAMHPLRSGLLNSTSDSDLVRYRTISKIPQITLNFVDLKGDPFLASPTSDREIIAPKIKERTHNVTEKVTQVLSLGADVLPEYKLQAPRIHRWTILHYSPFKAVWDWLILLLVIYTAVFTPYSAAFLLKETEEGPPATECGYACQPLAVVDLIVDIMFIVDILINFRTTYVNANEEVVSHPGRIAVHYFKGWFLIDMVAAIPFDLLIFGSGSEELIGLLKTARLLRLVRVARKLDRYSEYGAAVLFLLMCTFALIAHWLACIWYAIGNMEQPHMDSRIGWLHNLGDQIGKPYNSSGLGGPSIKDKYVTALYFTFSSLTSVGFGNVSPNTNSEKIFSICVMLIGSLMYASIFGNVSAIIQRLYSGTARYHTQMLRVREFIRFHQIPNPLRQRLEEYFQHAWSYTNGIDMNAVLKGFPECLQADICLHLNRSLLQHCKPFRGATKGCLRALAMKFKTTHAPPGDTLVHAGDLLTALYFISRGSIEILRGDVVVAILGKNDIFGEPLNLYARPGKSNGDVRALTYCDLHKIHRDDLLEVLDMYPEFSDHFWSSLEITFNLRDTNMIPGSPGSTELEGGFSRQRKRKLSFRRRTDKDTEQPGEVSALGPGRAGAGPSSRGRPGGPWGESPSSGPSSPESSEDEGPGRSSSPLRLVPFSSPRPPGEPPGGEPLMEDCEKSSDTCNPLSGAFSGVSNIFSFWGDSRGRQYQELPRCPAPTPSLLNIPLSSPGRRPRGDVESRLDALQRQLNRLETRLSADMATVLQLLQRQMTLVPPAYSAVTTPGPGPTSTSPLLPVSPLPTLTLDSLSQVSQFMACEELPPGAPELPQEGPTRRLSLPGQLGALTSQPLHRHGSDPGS

`FC(F)(F)c1cc2c(NC3CCCc4ccccc43)ncnc2[nH]1` (stereo not drawn) showed an EC50 [1] of 440 nM.
For `C[C@@H]1C[C@@H](NC(=O)c2ncc(-c3cccc(C#N)c3)o2)CN1C#N`, the inhibition at 30 µM (hERG (KCNH2)) was 30.2% and the efflux ratio [2] was 23.
For `CO[C@H]1C[C@@H]2CC[C@@H](C)[C@@](O)(O2)C(=O)C(=O)N2CCCC[C@H]2C(=O)O[C@H]([C@H](C)C[C@@H]2CC[C@@H](OCCO)[C@H](OC)C2)CC(=O)[C@H](C)/C=C(\C)[C@@H](O)[C@@H](OC)C(=O)[C@H](C)C[C@H](C)/C=C/C=C/C=C/1C` [EVEROLIMUS], the Kp [3] was 0.015.
With `c1coc(CNc2ncnc3[nH]cnc23)c1` [KINETIN] the concentration [4] was 2970 nM.
In the case of `CN(C)C(=N)N=C(N)N` [METFORMIN], the Cmax [5] is reported as 741 nM and the Cmax [6] is reported as 741 nM.
For `CN(CCOc1ccc(CC2SC(=O)NC2=O)cc1)c1ccccn1` (stereo not drawn) [ROSIGLITAZONE], the Cmax [7] was 2960 nM.
